Data from the supplement of paper PMC10307832.

Legend:
Test in all cases: relative viability (nuclei count vs DMSO), 5 days (fraction); higher = more cells survive
Idelalisib + Palbociclib = compound: CC[C@H](Nc1ncnc2[nH]cnc12)c1nc2cccc(F)c2c(=O)n1-c1ccccc1 [Idelalisib] + CC(=O)c1c(C)c2cnc(Nc3ccc(N4CCNCC4)cn3)nc2n(C2CCCC2)c1=O [Palbociclib] (partner 0.5 µM)
Summary of the method: (§1)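 Lung cancer cell lines in 1536-well plates got either a single drug or a fixed anchor-drug dose together with five library-drug doses (not always all listed) in √10 steps, by pin tool, on the day after seeding. Nuclei were counted after 5 days, and relative viability is the treated-to-vehicle ratio of nuclei counts. Values are medians of duplicate plates.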

Idelalisib + Pictilisib = compound: CC[C@H](Nc1ncnc2[nH]cnc12)c1nc2cccc(F)c2c(=O)n1-c1ccccc1 [Idelalisib] + CS(=O)(=O)N1CCN(Cc2cc3nc(-c4cccc5[nH]ncc45)nc(N4CCOCC4)c3s2)CC1 [Pictilisib] (partner 1 µM)
Summary of the method: as §1

Idelalisib + Phenformin = compound: CC[C@H](Nc1ncnc2[nH]cnc12)c1nc2cccc(F)c2c(=O)n1-c1ccccc1 [Idelalisib] + N=C(N)NC(=N)NCCc1ccccc1 [Phenformin] (partner 250 µM)
Summary of the method: as §1

Pemetrexed + Linsitinib = compound: Nc1nc2[nH]cc(CCc3ccc(C(=O)N[C@@H](CCC(=O)O)C(=O)O)cc3)c2c(=O)[nH]1 [Pemetrexed] + C[C@]1(O)C[C@@H](c2nc(-c3ccc4ccc(-c5ccccc5)nc4c3)c3c(N)nccn32)C1 [Linsitinib] (partner 1 µM)
Summary of the method: as §1

Cell Line	relative viability (Idelalisib + Palbociclib; first compound 0.04 µM)	relative viability (Idelalisib + Palbociclib; first compound 0.1265 µM)	relative viability (Idelalisib + Palbociclib; first compound 0.4 µM)	relative viability (Idelalisib + Palbociclib; first compound 1.265 µM)	relative viability (Idelalisib + Palbociclib; first compound 4 µM)	relative viability (Idelalisib + Pictilisib; first compound 0.04 µM)	relative viability (Idelalisib + Pictilisib; first compound 0.1265 µM)	relative viability (Idelalisib + Pictilisib; first compound 0.4 µM)	relative viability (Idelalisib + Pictilisib; first compound 1.265 µM)	relative viability (Idelalisib + Pictilisib; first compound 4 µM)	relative viability (Idelalisib + Phenformin; first compound 0.04 µM)	relative viability (Idelalisib + Phenformin; first compound 0.1265 µM)	relative viability (Idelalisib + Phenformin; first compound 1.265 µM)	relative viability (Idelalisib + Phenformin; first compound 4 µM)	relative viability (Pemetrexed + Linsitinib; first compound 0.002 µM)	relative viability (Pemetrexed + Linsitinib; first compound 0.006325 µM)	relative viability (Pemetrexed + Linsitinib; first compound 0.02 µM)	relative viability (Pemetrexed + Linsitinib; first compound 0.06325 µM)	relative viability (Pemetrexed + Linsitinib; first compound 0.2 µM)	relative viability (Idelalisib + Phenformin; first compound 0.4 µM)
NCI-H727	0.7	0.566	0.648	0.786	0.619	0.385	0.66	0.312	0.773	0.476	0.582	0.56	0.607	0.448	0.154	0.272	0.218	0.332	0.264	
NCI-H1975	0.586	0.653	0.429	0.583	0.406	0.324	0.295	0.249	0.316	0.271	0.426	0.418	0.408	0.357		0.904	1.06	0.793	0.526	0.369
NCI-H460	0.145	0.286	0.175	0.121	0.103	0.363	0.318	0.315	0.36	0.359	0.643	0.516	0.503	0.515	0.75	0.697	0.782	0.166	0.0543	0.438
EPLC-272H	0.724	0.346	0.29	0.307	0.322	0.299	0.313	0.236	0.402	0.316	0.302	0.291	0.257	0.265	1.06	1.07	1.19	0.959	1.12	0.308
SK-LU-1	0.424	0.408	0.504	0.375	0.348	0.553	0.668	0.532	0.574	0.552	0.601	0.57	0.55	0.468	1.01	1.03	1.15	0.951	0.968	0.433
NCI-H322M	0.495	0.488	0.424	0.435	0.508	0.546	0.584	0.444	0.508	0.549	0.901	0.846	0.741	0.735	0.967	0.778	1.06	0.938	0.809	0.66
NCI-H2405	0.539	0.484	0.494	0.512	0.486	0.492	0.471	0.387	0.401	0.447	0.451	0.37	0.355	0.35	1.01	0.913	1.03	0.894	0.975	0.322
NCI-H1666	0.615	0.6	0.645	0.689	0.645	0.541	0.48	0.469	0.361	0.333	0.618	0.57	0.583	0.546	0.71	0.774	0.829	0.73	0.615	0.539
NCI-H358	0.178	0.138	0.137	0.153	0.153	0.359	0.355	0.281	0.342	0.355	0.386	0.327	0.338	0.313	0.641	0.666	0.514	0.261	0.282	0.225
H3255	0.33	0.297	0.287	0.35	0.338	0.416	0.442	0.44	0.436	0.404	0.359	0.329	0.352	0.336	0.83	0.976	1.04	0.946	0.768	0.351
LCLC-103H	0.515	0.421	0.472	0.472	0.451	0.756	0.63	0.517	0.586	0.574	0.367	0.312	0.33	0.314	1.07	1.03	1.14	1.16	0.992	0.275
NCI-H2347	0.48	0.453	0.445	0.42	0.286	0.398	0.69	0.487	0.623	0.756	0.395	0.386	0.284	0.313	0.874	0.932	0.938	0.716	0.521	0.372
LK-2	0.603	0.832		0.609	0.659	0.545	0.431		0.534	0.586	0.477	0.407	0.536	0.384	0.339	0.307	0.514	0.448	0.341	
HCC-15	0.815	0.73	0.633	0.832	0.598	0.762	0.748	0.662	0.866	0.728	0.498	0.511	0.587	0.5	0.857	0.773	0.922	0.753	0.518	0.389
SW 1573	0.436	0.376	0.346	0.372	0.255	0.547	0.523	0.513	0.668	0.393	0.383	0.37	0.36	0.336	0.794	0.761	0.7	0.752	0.837	0.336
NCI-H838	0.207	0.262	0.186	0.213	0.171	0.505	0.469	0.346	0.531	0.469	0.61	0.668	0.607	0.405	0.97	0.915	1.21	0.791	0.309	0.405

Cell Line	relative viability (Idelalisib + Palbociclib; first compound 0.04 µM)	relative viability (Idelalisib + Palbociclib; first compound 0.1265 µM)	relative viability (Idelalisib + Palbociclib; first compound 0.4 µM)	relative viability (Idelalisib + Palbociclib; first compound 1.265 µM)	relative viability (Idelalisib + Palbociclib; first compound 4 µM)	relative viability (Idelalisib + Pictilisib; first compound 0.04 µM)	relative viability (Idelalisib + Pictilisib; first compound 0.1265 µM)	relative viability (Idelalisib + Pictilisib; first compound 0.4 µM)	relative viability (Idelalisib + Pictilisib; first compound 1.265 µM)	relative viability (Idelalisib + Pictilisib; first compound 4 µM)	relative viability (Idelalisib + Phenformin; first compound 0.04 µM)	relative viability (Idelalisib + Phenformin; first compound 0.1265 µM)	relative viability (Idelalisib + Phenformin; first compound 1.265 µM)	relative viability (Idelalisib + Phenformin; first compound 4 µM)	relative viability (Pemetrexed + Linsitinib; first compound 0.002 µM)	relative viability (Pemetrexed + Linsitinib; first compound 0.006325 µM)	relative viability (Pemetrexed + Linsitinib; first compound 0.02 µM)	relative viability (Pemetrexed + Linsitinib; first compound 0.06325 µM)	relative viability (Pemetrexed + Linsitinib; first compound 0.2 µM)	relative viability (Idelalisib + Phenformin; first compound 0.4 µM)
RERF-LC-KJ	1.12	1.06	1.02	0.965	0.759	0.493	0.521	0.581	0.516	0.53	0.442	0.438	0.44	0.373	0.856	0.845	0.926	0.912	0.752	0.419
NCI-H441	0.231	0.155		0.23	0.182	0.522	0.451		0.375	0.393	0.803	0.919	0.885	0.898	0.553	0.572	0.454	0.414	0.269	0.639
PC-14	0.539	0.511	0.439	0.561	0.415	0.765	0.788	0.705	0.688	0.506	0.746	0.784	0.409	0.669	0.922	0.901	1.01	0.759	0.184	0.516
NCI-H2009	0.259	0.224	0.176	0.202	0.13	0.85	0.767	0.798	0.84	0.768	0.496	0.483	0.536	0.491	0.979	1.1	1.3	1.17	1.11	0.474
NCI-H1395	0.636	0.615	0.595	0.564	0.453	0.714	0.525	0.564	0.613	0.557	0.476	0.421	0.445	0.439	0.99	0.975	1.1	1.1	0.998	0.423
NCI-H1437	0.334	0.413	0.318	0.361	0.325	0.491	0.526	0.429	0.437	0.525	0.309	0.306	0.361	0.247	0.898	0.965	0.967	0.49	0.252	0.297
NCI-H647	0.393	0.319	0.25	0.242	0.219	0.448	0.452	0.475	0.377	0.393	0.673	0.498	0.38	0.299		0.886	1.29	1.08	0.332	
NCI-H1793	0.331	0.27		0.298	0.26	0.306	0.355	0.307	0.312	0.296	0.388	0.369	0.335	0.224	0.862	0.722	0.676	0.841	0.779	0.288
SK-MES-1	0.296	0.311	0.299	0.315	0.288	0.377	0.365	0.355	0.414	0.36	0.704	0.675	0.686	0.674	1.01	1.02	1.07	0.984	0.955	0.663
NCI-H2087	0.216	0.173	0.15	0.223	0.169	0.989	0.743	0.853	0.907	0.904	0.515	0.494	0.5	0.326	0.886	0.889	1.02	0.767	0.635	0.36
BEN	0.532	0.438	0.452	0.509	0.413	0.559	0.517	0.531	0.609	0.523	0.277	0.27	0.28	0.281	0.855	0.84	0.897	0.868	0.731	0.262
NCI-H3122	0.172	0.195	0.185	0.214	0.203	0.595	0.594	0.551	0.669	0.557	0.389	0.371	0.41	0.388	1.01	1	0.949	1.01	0.646	0.403
LCLC-97TM1	0.247	0.248	0.179	0.239	0.158	0.236	0.182		0.231	0.152	0.43	0.434	0.592	0.453	0.151	0.152	0.184	0.133	0.174	0.267
NCI-H2228	0.633	0.846	0.737	0.958	0.743	0.383	0.367	0.355	0.396	0.421	0.348	0.371	0.221	0.235	0.708	0.472	0.906	0.553	0.425	0.162
COR-L23	0.314	0.299	0.239	0.315	0.281	0.674	0.8	0.514	0.8	0.777	0.439	0.39	0.433	0.517	0.839	0.863	1.04	0.294	0.177	0.411
EMC-BAC-2	0.546	0.502	0.489	0.522	0.482	0.563	0.569	0.475	0.59	0.492	0.564	0.517	0.506	0.524	0.541	0.778	0.794	0.826	0.844	0.478
